Test results as given in patent publication US7439063B2, “Neuroprotective synergy of erythropoietin and insulin-like growth factors” (Burnham Institute for Medical Research, priority 2002, dated 2008).
Read-outs that look alike come from different tables or passages of the source.

Assays:
Akt = Akt phosphorylation on serine-473 (immunoblot); type: cell-based, rat
cerebrocortical neurons = conditions: 6, 12, 16 and 48 hours after NMDA exposure; mixed neuronal-glial cultures
Procedure: The total number of viable MAP2 positive cells was assayed to avoid the effects of secondary necrosis seen at longer survival times (Bonfoco et al., supra, 1995).
Neuronal survival was assayed as the total number of MAP2 positive cells to avoid the confounding effects of secondary necrosis, which can occur at later time points and obfuscate the number of apoptotic cells (Bonfoco et al., supra, 1995).

[1] = system: active caspase-3/XIAP complex; assay: XIAP associated with active caspase-3 (immunoprecipitation, densitometry); type: cell-based, rat; conditions: NMDA exposure alone
Procedure: In mixed cerebrocortical cultures, EPO is known to induce expression of XIAP and c-IAP, two related factors capable of inhibiting caspase-3 proteolytic activity (Digicaylioglu and Lipton, supra, 2001; and Holcik and Korneluk, Nat. Rev. Mol. Cell. Biol. 2:550-556 (2001)). Here, cerebrocortical cultures were analyzed for the effect of combined EPO and IGF-I treatment on association of XIAP and active caspase-3. Cultures were incubated with EPO, IGF-I and NMDA and, after immunoprecipitation of the active form of caspase-3, immunoprecipitates were probed for the presence of XIAP using western blotting.
To perform these experiments, cerebrocortical cultures were exposed to NMDA, or EPO and IGF-I, or concurrently exposed to NMDA and EPO/IGF-I as described above. Immunoprecipitation of culture lysates was performed using precleared whole-cell lysates, incubated with a 1:100 dilution of antibody specifically recognizing the cleaved form of caspase-3 (Cell Signaling Technologies) for one hour at room temperature, followed by addition of protein A/G-Sepharose beads and immunoprecipitation as described above. The immunoprecipitates were separated by electrophoresis and transferred to a nitrocellulose membrane, which was blotted with a 1:200 dilution of anti-XIAP antibody (Trevigen; Gaithersburg, Md.).

caspase-3 = assay: Caspase-3 (DEVD) cleavage assay in culture lysates; type: cell-based, rat; conditions: lysates 16 hours after NMDA exposure; simultaneous application or 3 hour preincubation
Procedure: To study the effect of combined EPO/IGF-I treatment on proteolytic activity of caspase-3, protein lysates were prepared from cerebrocortical cultures 16 hours after NMDA exposure, and caspase-3 activity was assayed using the fluorescent caspase-3 substrate, DEVD-7-amino-4-trifluoromethyl-coumarin (DEVD-AFC).
Caspase-3 (DEVD) cleavage assays were performed as described previously. Briefly, cerebrocortical cultures were lysed in cold buffer containing 10% sucrose, 0.1% CHAPS, 100 mM HEPES (pH 7.5), and 10 mM dithiothreitol (DTT). Cytoplasmic protein extracts (200 μg) were incubated for 30 minutes at 37° C. with 80 μM caspase-3 peptide substrate DEVD-AFC (Enzyme Systems Products; Livermore, Calif.). Free fluorescent AFC released by caspase-3 activity was measured on a FluoroMax2 fluorometer at 400 nm excitation and 505 nm emission.

[2] = system: rat primary cerebrocortical cultures
Procedure: The neuroprotective effects of concurrent EPO and IGF-I administration were compared to individual treatment with EPO or IGF-I in rat primary cerebrocortical cultures.
Neuronal apoptosis was quantified by double labeling for TUNEL reactivity, which in conjunction with condensed morphology is indicative of apoptosis, and the neuron-specific protein microtubule associated protein-2 (MAP2) 16 hours after NMDA insult.
For these experiments, mixed neuronal/glial cerebrocortical cultures were prepared as described previously (Bonfoco et al., supra, 1995); Lei et al., Neuron 8:1087-1099 (1992); and Lipton et al., Nature 364:626-632 (1993)). In brief, cortical tissue from embryonic day 16 Sprague-Dawley rats was dissociated in 0.5% trypsin and plated on poly-L-lysine coated glass coverslips at a density of 10^5 cells per 35 mm culture dish in serum-containing medium. Prior to experimental use, cerebrocortical neurons were kept at 37° C. and 5% CO2 for at least 17 days to permit full expression of NMDA receptors (Lei et al., supra, 1992; and Lipton et al., supra, 1993).
EPO and IGF-I incubations were performed essentially as follows. Human recombinant EPO purchased from Amgen (Epoietin alfa, 2000 IU/ml) was diluted in cell culture medium to a final concentration of 5-10 U/ml. Insulin-like growth factor-I (IGF-I) (Calbiochem; La Jolla, Calif.) was diluted in cell culture medium to a final concentration of 50-100 ng/ml.
NMDA incubations were performed as follows. Cerebrocortical cultures were exposed to 200 μM NMDA in nominally Mg^2+-free Earle's Balanced Salt Solution (EBSS), containing 1.8 mM CaCl2 and 5 μM glycine for 20 minutes. After NMDA exposure, cultures were washed with EBSS and then placed in conditioned tissue culture medium filtered with a […] Acrodisk filter (Perkin-Elmer; Wellesley, Mass.) to remove activated microglia. Where indicated, EPO, IGF-I or both EPO and IGF-I were added to the conditioned media.
Detection of apoptotic neurons was performed essentially as follows. After experimental incubation, cerebrocortical cultures were fixed in PBS (150 mM NaCl, 1.7 mM monobasic sodium phosphate, 9.1 mM dibasic sodium phosphate) with 4% paraformaldehyde, and permeabilized in PBS containing 1% Tween-20. Apoptotic cells were identified by condensed morphology in conjunction with TUNEL using the Apoptosis Detection System (Promega; Madison, Wis.). […]
For PI3-kinase inhibition, cultures were prepared and incubated with NMDA alone, or with EPO or IGF-I individually, or EPO in combination with IGF-I, as described above. […] Neuronal apoptosis was assessed 16 hours after NMDA application by determining the percentage of MAP2-positive cells that were also TUNEL positive, as described above.

erythropoietin receptor = target: T1, erythropoietin receptor (Homo sapiens, UniProt P19235); conditions: known erythropoietin mimetic peptides; cited from earlier work
T1 sequence (P19235 25-249 limits assumed): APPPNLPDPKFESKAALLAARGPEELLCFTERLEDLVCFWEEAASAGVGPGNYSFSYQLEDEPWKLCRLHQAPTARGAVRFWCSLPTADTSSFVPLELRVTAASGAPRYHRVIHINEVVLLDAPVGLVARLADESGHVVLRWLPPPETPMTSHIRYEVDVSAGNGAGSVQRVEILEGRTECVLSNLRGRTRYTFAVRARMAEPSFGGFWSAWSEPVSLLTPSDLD

[3] = naturally occurring peptide; cited from earlier work
[4] = system: p85 subunit of PI3-kinase; assay: phosphorylation of the p85 subunit of PI3-kinase (immunoblot); type: cell-based, rat; conditions: IGF-I: maximal phosphorylation; EPO: phosphorylation observed; treated 10, 20 or 30 minutes
Procedure: PI3-kinase is activated by phosphorylation of a p85 regulatory subunit, which leads to release of the catalytic subunit (Pleiman et al., Science 263:1609-1612 (1994)). To determine if EPO or IGF-I induces phosphorylation of the p85 subunit of PI3-kinase, rat cerebrocortical cultures were treated with EPO or IGF-I for 10, 20 or 30 minutes, and protein lysates from these cultures analyzed by immunoblotting for the presence of phospho-p85. As shown in FIG. 5B (upper and lower panels), both factors induced p85 phosphorylation in a time-dependent manner. […] Equal protein loading was confirmed by analyzing the amounts of total p85 with a second antibody.
Preparation of total cell extracts for immunoblotting or immunoprecipitation was performed essentially as follows. Cultures were washed briefly in cold PBS. After addition of ice cold lysis buffer (50 mM Tris-Cl, 150 mM NaCl, 1.1 mM PMSF, 10 μg/ml Aprotinin, 1% Triton X-100, pH 8.0, 2 mM Ortho-Vanadate, 0.1% deoxycholate), cells were scraped off the culture dishes. Lysates were transferred to a microcentrifuge tube, vortexed for 15 seconds at 4° C., and cleared by centrifugation for 20 minutes at 14,000×g at […]. Protein concentrations were determined using a BCAProtein assay kit (Pierce; Rockford, Ill.).
Immunoblotting was performed as follows. […]

[5] = system: focal cerebral ischemic damage; conditions: administered intranasally; cited from earlier work
[6] = brain delivery of intranasally applied radiolabeled EPO (autoradiography); type: in vivo
Description: As disclosed herein, EPO or an active fragment or analog thereof can cross the blood-brain barrier following intranasal administration, whereby unwanted systemic effects such as increased hematocrit can be avoided.

## CN[C@H](CC(=O)O)C(=O)O [NMDA, N-methyl-D-aspartate]
Akt; 20-minute exposure to NMDA
  constitutive levels of Akt phosphorylation: reduced constitutive levels of Akt phosphorylation
Cerebrocortical neurons
  number of surviving neurons in mixed cultures: dramatic decrease in the number of surviving neurons
[1]
  amount of XIAP associated with active caspase-3, NMDA alone: modest increase
caspase-3
  caspase-3-like activity (DEVD cleavage): increased DEVD cleavage
[2]; 200 μM NMDA for 20 minutes alone, 16 hours after NMDA insult
  apoptotic appearance and TUNEL reactivity, % of MAP2-labeled neurons: 76+7%

## GGCRIGPITWVCGG [AF11154]
Erythropoietin receptor
  IC50: 10000 nM

## GGDYHCRMGPLTWVCKPLGG [EMP2]
Erythropoietin receptor
  IC50: 200 nM

## GGLYLCRFGPVTWDCGYKGG [EMP5]
Erythropoietin receptor
  IC50: 1000 nM

## GGTYSCHFGPLTWVCKPQGO [EMP1]
Erythropoietin receptor
  IC50: 200 nM

## GGVYACRMGPITWVCSPLGC [EMP3]
Erythropoietin receptor
  IC50: 300 nM

## IGF-I: Insulin-like growth factor-I (Calbiochem), also known as somatomedin C, a hormone of 70 amino acids
[3]
  pI: 8.4
Akt; three hour incubation
  phospho-serine-473 Akt: moderate Akt activation
[4]
  time to phosphorylation of p85 subunit of PI3-kinase: 10 min
[5]
  protection against focal cerebral ischemic damage: can protect against focal cerebral ischemic damage
[2]; factor applied individually at the time of NMDA insult
  cell death, treatment at the time of NMDA insult: did not significantly reduce cell death
[2]; in the absence of NMDA exposure
  neuronal viability in control incubations: did not affect neuronal viability
[2]; preincubation for three hours before NMDA, EPO 10 U/ml, IGF-I 100 ng/ml
  neuronal apoptosis after preincubation: significantly attenuated neuronal apoptosis

## IGF-II: naturally occurring, relatively neutral peptide with 60% amino acid homology to native IGF-I
[3]
  pI: 6.4

## VGNYMCHFGPITWVCRPGGG [EMP4]
Erythropoietin receptor
  IC50: 500 nM

## radiolabeled EPO: intranasally applied radiolabeled erythropoietin
[6]
  distribution after intranasal application: migrated into olfactory tissue and was observed in the rostral migratory stream
[6]; listed as radiolabeled erythropoietin
  distribution after intranasal application: accumulated in brain tissue
